Experimental data published in ChEMBL document CHEMBL3102775, “UK-1 and structural analogs are potent inhibitors of hepatitis C virus replication” (Bioorg Med Chem Lett, 2014).
Activity calls are given as the source filed them. The calls are words filed in the database; no cut-off is given here.

Columns and labels:
[1] = Inhibition of HCV ATPase activity of NS3 NTPase/helicase domain expressed in Escherichia coli BL21 after 30 mins by thin layer chromatography in presence of [gamma-32P]ATP; set-up: species or system Hepacivirus hominis
[2] = Inhibition of Dengue virus helicase
[3] = tested on: Hepacivirus hominis; assay: Inhibition of HCV NS5B RNA dependent RNA polymerase at 100 uM
[4] = Inhibition of HCV NS3 NTPase/helicase domain expressed in Escherichia coli BL21 using dsDNA as substrate assessed as strand separation of [32P]-labeled oligonucleotides after 30 mins by SDS-gel electrophoresis; set-up: species or system Hepacivirus hominis
[5] = Inhibition of HCV NS3 NTPase/helicase domain expressed in Escherichia coli BL21 using dsRNA as substrate assessed as strand separation of [32P]-labeled oligonucleotides after 30 mins by SDS-gel electrophoresis; set-up: species or system Hepacivirus hominis
[6] = Selectivity index, ratio of CC50 for human Huh7ET cells to EC50 for HCV infected in human Huh7ET cells; set-up: species or system Huh-7
[7] = tested on: Hepatitis C virus; assay: Antiviral activity against HCV infected in human Huh7ET cells assessed as inhibition of viral replication by luciferase reporter gene assay/RNA blot hybridization analysis; format: functional, organism-based, Hepacivirus hominis; settings: Huh-7
[8] = Cytotoxicity against human Huh7ET cells by neutral red assay; format: cell-based, Huh-7
[9] = Binding affinity to double stranded RNA assessed as effect on Eco-RI-digested pT7-7 plasmid mobilization at 20 to 500 uM after 60 mins by agarose gel mobility assay
[10] = Binding affinity to double stranded DNA assessed as effect on Eco-RI-digested pT7-7 plasmid mobilization at 20 to 500 uM after 60 mins by agarose gel mobility assay
[11] = tested on: Human immunodeficiency virus 1; assay: Antiviral activity against HIV1; format: functional, organism-based
[12] = Cytotoxicity against human Huh7ET cells by luciferase reporter gene assay; format: cell-based; settings: huh-7
[13] = Selectivity index, ratio of CC50 for human Huh7ET cells by luciferase reporter gene assay to EC50 for HCV infected in human Huh7ET cells by luciferase reporter gene assay; set-up: species or system Huh-7
[14] = tested on: Hepatitis C virus; assay: Antiviral activity against HCV infected in human Huh7ET cells assessed as inhibition of viral replication by luciferase reporter gene assay; format: functional, organism-based, Hepacivirus hominis; settings: Huh-7

Row | SMILES | IC50 [1] [µM] | IC50 [2] [µM] | inhibition [3] [%] | IC50 [4] [µM] | IC50 [5] [µM] | Ratio CC50/EC50 [6] | EC50 [7] [µM] | CC50 ([8]; huh-7) [µM] | Activity [9] | Activity [10] | CC50 ([8]; Huh7ET cells) [µM] | Activity [11] | CC50 [12] [µM] | Ratio CC50/EC50 [13] | EC50 [14] [µM]
1 | COC(=O)c1cccc2oc(-c3cccc4oc(-c5ccccc5O)nc34)nc12 | > 1200 | > 700 | < 30 | 380 | > 1200 | 22 | 0.77 | 17 | – | – | – | – | – | – | –
2 | COC(=O)c1cccc2oc(-c3ccc4c(OCc5ccccc5)cccc4c3O)nc12 | > 1200 | > 700 | < 30 | 3.8 | 20 | >10 | 2.1 | – | inactive | inactive | > 20 | inactive | – | – | –
3 | CNC(=O)c1cccc2oc(-c3ccccc3O)nc12 | > 1200 | > 700 | < 30 | > 1800 | > 1800 | – | – | – | – | – | – | inactive | 6.3 | 4.5 | 1.4
4 | O=C(O)c1cccc2oc(-c3ccccc3O)nc12 | > 1200 | > 700 | < 30 | > 1800 | > 1800 | 6.6 | 0.53 | 3.5 | – | – | – | inactive | – | – | –
5 | COC(=O)c1cccc2oc(-c3ccccc3O)nc12 | > 1200 | > 700 | < 30 | > 1800 | > 1800 | 11 | 0.5 | 5.4 | – | – | – | inactive | – | – | –
6 | COC(=O)c1cccc2oc(-c3ccc4ccc(OCc5ccccc5)cc4c3O)nc12 | > 1200 | > 700 | < 30 | 2.6 | 20 | >37 | 0.54 | – | inactive | inactive | > 20 | inactive | – | – | –
7 | COC(=O)c1cccc2oc(-c3ccc4ccccc4c3O)nc12 | > 1200 | > 700 | < 30 | 540 | 590 | 4.7 | 0.53 | 2.5 | – | – | – | inactive | – | – | –
